Test results reported in ChEMBL document CHEMBL1201862, “PubChem BioAssay data set” (2004).
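1) Cells in 96-well plates. 2) Compound, 48 h, 5 concentrations. 3) Linear interpolation between surrounding doses. 4) Unreached endpoint = highest concentration. GI50: concentration for 50% inhibition of growth.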 Calls of active or inactive are those of the source. Rule as the data show it: active = GI50 up to about 1.1 µM and inactive = higher.

Tests used:
Assay in all cases: NCI anticancer screen, dose series, 48 h
[1] = system: 786-0
[2] = system: A498
[3] = system: A549
[4] = system: ACHN
[5] = system: CAKI-1
[6] = system: CCRF-CEM
[7] = system: COLO 205
[8] = system: DU-145
[9] = system: EKVX
[10] = system: HCC 2998
[11] = system: HCT-116
[12] = system: HCT-15
[13] = system: HL-60
[14] = system: HOP-62
[15] = system: HOP-92
[16] = system: HT-29
[17] = system: Hs-578T
[18] = system: IGROV-1
[19] = system: K562
[20] = system: KM12
[21] = system: LOX IMVI
[22] = system: M14
[23] = system: MCF7
[24] = system: MDA-MB-231
[25] = system: MDA-MB-435
[26] = system: MDA-N
[27] = system: MOLT-4
[28] = system: Malme-3M
[29] = system: NCI-H226
[30] = system: NCI-H23
[31] = system: NCI-H460
[32] = system: NCI-H522
[33] = system: NCI/ADR-RES
[34] = system: OVCAR-3
[35] = system: OVCAR-4
[36] = system: OVCAR-5
[37] = system: OVCAR-8
[38] = system: PC-3
[39] = system: RPMI-8226
[40] = system: RXF 393
[41] = system: SF-268
[42] = system: SF-295
[43] = system: SF-539
[44] = system: SK-MEL-28
[45] = system: SK-MEL-2
[46] = system: SK-MEL-5
[47] = system: SK-OV-3
[48] = system: SN12C
[49] = system: SNB-19
[50] = system: SNB-75
[51] = system: SR
[52] = system: SW-620
[53] = system: T47D
[54] = system: TK-10
[55] = system: U-251
[56] = system: UACC-257
[57] = system: UACC-62
[58] = system: UO-31

## OCCN(CCO)c1ccc2c(C(F)(F)F)cc(C(F)(F)F)nc2n1
[1]
  GI50: > 100 µM (inactive)
[2]
  GI50: 48.5 µM (inactive)
[3]
  GI50: > 77.3 µM (inactive)
[4]
  GI50: > 100 µM (inactive)
[5]
  GI50: > 100 µM (inactive)
[6]
  GI50: > 100 µM (inactive)
[7]
  GI50: > 100 µM (inactive)
[8]
  GI50: > 100 µM (inactive)
[9]
  GI50: > 100 µM (inactive)
[10]
  GI50: > 100 µM (inactive)
[11]
  GI50: > 100 µM (inactive)
[12]
  GI50: > 86500 nM
[13]
  GI50: > 100 µM (inactive)
[14]
  GI50: > 100 µM (inactive)
[15]
  GI50: > 100 µM (inactive)
[16]
  GI50: > 100 µM (inactive)
[17]
  GI50: > 100 µM (inactive)
[18]
  GI50: > 100 µM (inactive)
[19]
  GI50: > 100 µM (inactive)
[20]
  GI50: > 100 µM (inactive)
[21]
  GI50: > 100 µM (inactive)
[22]
  GI50: > 100 µM (inactive)
[23]
  GI50: > 100 µM (inactive)
[24]
  GI50: > 100 µM (inactive)
[25]
  GI50: > 100 µM (inactive)
[26]
  GI50: > 100 µM (inactive)
[27]
  GI50: > 100 µM (inactive)
[28]
  GI50: > 100 µM (inactive)
[29]
  GI50: > 100 µM (inactive)
[30]
  GI50: > 100 µM (inactive)
[31]
  GI50: > 100 µM (inactive)
[32]
  GI50: > 100 µM (inactive)
[33]
  GI50: > 80.4 µM (inactive)
[34]
  GI50: > 100 µM (inactive)
[35]
  GI50: > 100 µM (inactive)
[36]
  GI50: > 100 µM (inactive)
[37]
  GI50: > 77.6 µM (inactive)
[38]
  GI50: > 100 µM (inactive)
[39]
  GI50: > 100 µM (inactive)
[40]
  GI50: > 100 µM (inactive)
[41]
  GI50: > 100 µM (inactive)
[42]
  GI50: > 100 µM (inactive)
[43]
  GI50: > 100 µM (inactive)
[44]
  GI50: > 100 µM (inactive)
[45]
  GI50: > 100 µM (inactive)
[46]
  GI50: 95.7 µM (inactive)
[47]
  GI50: > 100 µM (inactive)
[48]
  GI50: > 100 µM (inactive)
[49]
  GI50: > 100 µM (inactive)
[50]
  GI50: > 100 µM (inactive)
[51]
  GI50: > 100 µM (inactive)
[52]
  GI50: > 100 µM (inactive)
[53]
  GI50: > 100 µM (inactive)
[54]
  GI50: > 100 µM (inactive)
[55]
  GI50: > 100 µM (inactive)
[56]
  GI50: > 100 µM (inactive)
[57]
  GI50: > 100 µM (inactive)
[58]
  GI50: > 100 µM (inactive)

## Clc1ncc(Cl)c(Cl)n1
[1]
  GI50: 1.99 µM (inactive)
[2]
  GI50: 19.1 µM (inactive)
[3]
  GI50: 12.1 µM (inactive)
[4]
  GI50: 1.92 µM (inactive)
[5]
  GI50: 1.86 µM (inactive)
[6]
  GI50: 2.47 µM (inactive)
[7]
  GI50: 1.72 µM (inactive)
[8]
  GI50: 11.8 µM (inactive)
[9]
  GI50: 13.3 µM (inactive)
[10]
  GI50: 4.21 µM (inactive)
[11]
  GI50: 2.82 µM (inactive)
[12]
  GI50: 2240 nM
[13]
  GI50: 0.474 µM (active)
[14]
  GI50: 16.5 µM (inactive)
[15]
  GI50: 1.81 µM (inactive)
[16]
  GI50: 1.36 µM (inactive)
[17]
  GI50: 2.72 µM (inactive)
[18]
  GI50: 9.66 µM (inactive)
[19]
  GI50: 0.832 µM (active)
[20]
  GI50: 9.14 µM (inactive)
[21]
  GI50: 1.17 µM (inactive)
[22]
  GI50: 3.24 µM (inactive)
[23]
  GI50: 1.59 µM (inactive)
[24]
  GI50: 3.03 µM (inactive)
[25]
  GI50: 2.65 µM (inactive)
[26]
  GI50: 3.37 µM (inactive)
[27]
  GI50: 1.5 µM (inactive)
[28]
  GI50: 1.88 µM (inactive)
[29]
  GI50: 4.85 µM (inactive)
[30]
  GI50: 15.5 µM (inactive)
[31]
  GI50: 5.27 µM (inactive)
[32]
  GI50: 1.48 µM (inactive)
[33]
  GI50: 3.95 µM (inactive)
[34]
  GI50: 6.5 µM (inactive)
[35]
  GI50: 2.08 µM (inactive)
[36]
  GI50: 19.8 µM (inactive)
[37]
  GI50: 3.86 µM (inactive)
[38]
  GI50: 2.45 µM (inactive)
[39]
  GI50: 0.455 µM (active)
[40]
  GI50: 2.05 µM (inactive)
[41]
  GI50: 9.12 µM (inactive)
[42]
  GI50: 13.2 µM (inactive)
[43]
  GI50: 8.97 µM (inactive)
[44]
  GI50: 3.42 µM (inactive)
[45]
  GI50: 2.12 µM (inactive)
[46]
  GI50: 5.05 µM (inactive)
[47]
  GI50: 4.7 µM (inactive)
[48]
  GI50: 1.73 µM (inactive)
[49]
  GI50: 3.3 µM (inactive)
[50]
  GI50: 2.84 µM (inactive)
[51]
  GI50: 1.61 µM (inactive)
[52]
  GI50: 1.38 µM (inactive)
[53]
  GI50: 2.36 µM (inactive)
[54]
  GI50: 9.55 µM (inactive)
[55]
  GI50: 4.22 µM (inactive)
[56]
  GI50: 5.22 µM (inactive)
[57]
  GI50: 1.91 µM (inactive)
[58]
  GI50: 3.17 µM (inactive)
